From patent publication US5116985A, “Isoquinoline derivatives and salts thereof” (priority 1989, dated 1992)
Structures can show the parent of a compound that is named as a salt.

What was measured:
trypsin [1] = molecular target: T1, trypsin (Bos taurus, UniProt P00760); assay: Inhibition of trypsin hydrolysis of casein, in vitro; format: biochemical; conditions: casein substrate, 20 μg of trypsin, 37° C., 10 minutes; read-out: 50% inhibitory concentration, substrate casein
T1 sequence (P00760 24-246): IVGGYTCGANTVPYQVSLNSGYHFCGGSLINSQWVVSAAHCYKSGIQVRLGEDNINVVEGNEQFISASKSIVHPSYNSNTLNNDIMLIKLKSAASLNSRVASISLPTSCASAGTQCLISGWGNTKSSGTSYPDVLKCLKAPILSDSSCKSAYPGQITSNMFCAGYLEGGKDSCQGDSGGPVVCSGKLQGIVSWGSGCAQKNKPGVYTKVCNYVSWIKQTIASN
Protocol: (§1) The inhibitory activity on trypsin in vitro was determined by the methods of Muramatsu, et al. described in the Journal of Biochemistry, 58, 214 (1965).

trypsin [2] = molecular target: T1, trypsin; assay: Inhibition of trypsin hydrolysis of TAME (p-tosylarginine methyl ester), in vitro; format: biochemical; conditions: TAME substrate, 1.5 μg of trypsin, 37° C., 10 minutes; read-out: 50% inhibitory concentration, substrate TAME
Protocol: as §1

Row | IC50 (trypsin [1]) [µM] | IC50 (trypsin [2]) [µM] | SMILES
1 | 0.14 | 0.066 | CN(C)C(=O)COC(=O)c1nccc2c(OC(=O)c3ccc(NC(=N)N)cc3)cccc12 [Compound No. 12, 1'-(N,N-Dimethylcarbamoyl)methoxycarbonyl-5'-isoquinolyl 4-guanidinobenzoate hydrochloride]
2 | 0.16 | 0.13 | CC(C)OC(=O)c1nccc2c(OC(=O)c3ccc(NC(=N)N)cc3)cccc12 [Compound No. 9, 1'-Isopropoxycarbonyl-5'-isoquinolyl 4-guanidinobenzoate hydrochloride]
3 | 0.14 | 0.065 | CN(C)C(=O)COC(=O)Cc1ccc(OC(=O)c2ccc(NC(=N)N)cc2)cc1 [Camostat mesylate, N,N-Dimethylcarbamoylmethyl -p-( -p-guanidinobenzoyloxy)phenylacetate methanesulfonate, reference compound]
4 | 0.14 | 0.064 | N=C(N)Nc1ccc(C(=O)Oc2cccc3c(O)nccc23)cc1 [Compound No. 2, 1'-Hydroxy-5'-isoquinolyl 4-guanidinobenzoate methanesulfonate]
5 | 0.13 | 0.056 | N=C(N)Nc1ccc(C(=O)Oc2cccc3cnccc23)cc1 [Compound No. 1, 5-Isoquinolyl 4-guanidinobenzoate dimethanesulfonate monohydrate]
6 | 0.17 | 0.064 | N=C(N)Nc1ccc(C(=O)Oc2cccc3c(C(=O)O)nccc23)cc1 [Compound No. 5, 1'-Carboxy-5'-isoquinolyl 4-guanidinobenzoate quarterhydrate]
7 | 0.14 | 0.056 | N#Cc1nccc2c(OC(=O)c3ccc(NC(=N)N)cc3)cccc12 [Compound No. 3, 1'-Cyano-5'-isoquinolyl 4-guanidinobenzoate methanesulfonate monohydrate]
8 | 0.14 | 0.057 | CC(=O)c1nccc2c(OC(=O)c3ccc(NC(=N)N)cc3)cccc12 [Compound No. 4, 1'-Acetyl-5'-isoquinolyl 4-guanidinobenzoate hydrochloride]
9 | 0.16 | 0.096 | CCCOC(=O)c1nccc2c(OC(=O)c3ccc(NC(=N)N)cc3)cccc12 [Compound No. 8, 1'-Propoxycarbonyl-5'-isoquinolyl 4-guanidinobenzoate methanesulfonate]
10 | 0.12 | 0.056 | CCOC(=O)c1nccc2c(OC(=O)c3ccc(NC(=N)N)cc3)cccc12 [Compound No. 7, 1'-Ethoxycarbonyl-5'-isoquinolyl 4-guanidinobenzoate hydrochloride]
11 | 0.41 | 0.34 | N=C(N)Nc1ccc(C(=O)Oc2cccc3c(C(=O)OCc4ccccc4)nccc23)cc1 [Compound No. 11, 1'-Benzyloxycarbonyl-5'-isoquinolyl 4-guanidinobenzoate hydrochloride monohydrate]
12 | 2.2 | 15 | CCOC(=O)c1ccc(OC(=O)CCCCCNC(=N)N)cc1 [Gabexate mesylate, Ethyl 4-(6-guanidinohexanoyloxy)benzoate methanesulfonate, reference compound]
13 | 0.16 | 0.056 | N=C(N)Nc1ccc(C(=O)Oc2cccc3c(C(N)=O)nccc23)cc1 [Compound No. 6, 1'-Carbamoyl-5'-isoquinolyl 4-guanidinobenzoate methanesulfonate hemihydrate]

Row | SMILES | IC50 (trypsin [1]) [µM] | IC50 (trypsin [2]) [µM]
14 | CCCCOC(=O)c1nccc2c(OC(=O)c3ccc(NC(=N)N)cc3)cccc12 [Compound No. 10, 1'-Butoxycarbonyl-5'-isoquinolyl 4-guanidinobenzoate hydrochloride monohydrate] | 0.21 | 0.15
